The values that follow come from ChEMBL document CHEMBL4376820, “Homodimeric Tobramycin Adjuvant Repurposes Novobiocin as an Effective Antibacterial Agent against Gram-Negative Bacteria” (J Med Chem, 2019).

Usually MIC stands for the least concentration at which growth counts as inhibited.

The subject of series [1] is Pseudomonas aeruginosa. Put plainly: Potentiation of novobiocin-induced antibacterial activity against wild type Pseudomonas aeruginosa PAO1 assessed as novobiocin MIC at <= 7.1 uM incubated for 18 hrs by CLSI protocol based assay (reference value: 512 ug/ml). As to conditions: PAO1, 18 h. In kind it is functional.
In series [2] the test system is Pseudomonas aeruginosa. Put plainly: Potentiation of novobiocin-induced antibacterial activity against carbapenem and colistin-resistant Pseudomonas aeruginosa 91433 clinical isolate assessed as novobiocin MIC at <= 7.1 uM incubated for 18 hrs by CLSI protocol based assay (reference value: 16 ug/ml). Format: functional. As to conditions: Pseudomonas aeruginosa, 91433, 18 h.

Series [3] deals with Pseudomonas aeruginosa. Put plainly: Potentiation of novobiocin-induced antibacterial activity against colistin and carbapenem-resistant Pseudomonas aeruginosa 101243 clinical isolate assessed as novobiocin MIC at <= 7.1 uM incubated for 18 hrs by CLSI protocol based assay (reference value: 128 ug/ml). In kind it is functional. Conditions: Pseudomonas aeruginosa, 101243, 18 h.

The subject of series [4] is Pseudomonas aeruginosa. Put plainly: Potentiation of novobiocin-induced antibacterial activity against carbapenem and colistin-resistant Pseudomonas aeruginosa 114228 clinical isolate assessed as novobiocin MIC at <= 7.1 uM incubated for 18 hrs by CLSI protocol based assay (reference value: 512 ug/ml). Format: functional. Conditions: Pseudomonas aeruginosa, 114228, 18 h.

The subject of series [5] is Escherichia coli. The series is described as follows: Potentiation of novobiocin-induced antibacterial activity against colistin-resistant Escherichia coli 94393 clinical isolate harboring mcr-1 gene assessed as novobiocin MIC at <= 7.1 uM incubated for 18 hrs by CLSI protocol based assay (reference value: 128 ug/ml). Format: functional. Conditions: Escherichia coli, 94393, 18 h.

For series [6], the system named is Acinetobacter baumannii. The series is described as follows: Potentiation of novobiocin-induced antibacterial activity against colistin-resistant Acinetobacter baumannii 92247 clinical isolate assessed as novobiocin MIC at <= 7.1 uM incubated for 18 hrs by CLSI protocol based assay (reference value: 4 ug/ml). In kind it is functional. Conditions: Acinetobacter baumannii, 92247, 18 h.

Series [7] relates to Escherichia coli. The series is described as follows: Potentiation of novobiocin-induced antibacterial activity against colistin-resistant Escherichia coli 94474 clinical isolate harboring mcr-1 gene assessed as novobiocin MIC at <= 7.1 uM incubated for 18 hrs by CLSI protocol based assay (reference value: 256 ug/ml). Format: functional. As to conditions: Escherichia coli, 94474, 18 h.

In a further series the test system is Klebsiella pneumoniae. Put plainly: Potentiation of novobiocin-induced antibacterial activity against colistin-resistant Klebsiella pneumoniae 113254 clinical isolate assessed as novobiocin MIC at <= 7.1 uM incubated for 18 hrs by CLSI protocol based assay (reference value: 256 ug/ml). In kind it is functional. Conditions: Klebsiella pneumoniae, 113254, 18 h.

For another series, the system named is Enterobacter cloacae. The series is described as follows: Potentiation of novobiocin-induced antibacterial activity against colistin-resistant Enterobacter cloacae 118568 clinical solate assessed as novobiocin MIC at <= 7.1 uM incubated for 18 hrs by CLSI protocol based assay (reference value: 1024 ug/ml). In kind it is functional. As to conditions: Enterobacter cloacae, 118568, 18 h.

In series [8] the test system is Pseudomonas aeruginosa. The series is described as follows: Induction of outer membrane permeabilization in Pseudomonas aeruginosa PAO1 assessed as increase in accumulation of NPN by measuring fluorescence intensity at 8 ug/ml measured immediately by NPN dye uptake assay. In kind it is organism-based.
Series [9] can be described thus: Toxicity in Galleria mellonella larvae MDR Acinetobacter baumannii isolate assessed as larvae protection at 25 mg/kg in combination with novobiocin measured after 24 to 96 hrs relative to control. Conditions: in vivo. In kind it is ADME, organism-based.
Series [10] deals with Acinetobacter baumannii. The series is described as follows: Potentiation of novobiocin-induced antibacterial activity against novobiocin and colistin resistant Acinetobacter baumannii ATCC 17978 mutant generated from seven serial passages by checkerboard assay. In kind it is functional, organism-based.

The structures appear in SMILES notation. The source made the active and inactive calls. No cut-off for these calls is given here. Positions of bridges follow the written chain, without caps; N, C: chain ends. Non-standard residues stand in square brackets, D forms with d. Residues, ends and D or L forms follow the SMILES beside them. Dab = NCC[C@H](N)C(=O)O

As to `CC(C)C[C@@H]1NC(=O)[C@@H](Cc2ccccc2)NC(=O)[C@H](CCN)NC(=O)[C@@H](NC(=O)[C@H](CCN)NC(=O)[C@@H](N)[C@@H](C)O)CCNC(=O)[C@H]([C@@H](C)O)NC(=O)[C@H](CCN)NC(=O)[C@H](CCN)NC1=O` [POLYMYXIN B NONAPEPTIDE] (H-T[Dab][Dab][Dab][dF]L[Dab][Dab]T; lactam 3-C), the MIC with Pseudomonas aeruginosa [1] turned out to be 4 µg/mL; in the series with Pseudomonas aeruginosa [2], 4 µg/mL; in the series on Pseudomonas aeruginosa [3], 8 µg/mL; in the series with Pseudomonas aeruginosa [4] it was 128 µg/mL; with Escherichia coli [5], 4 µg/mL; in the series on Acinetobacter baumannii [6], 1 µg/mL. Also, the MIC with Escherichia coli [7] was determined as 32 µg/mL; in the series with Klebsiella pneumoniae it was 64 µg/mL; with Enterobacter cloacae, 512 µg/mL. In the series on Pseudomonas aeruginosa [8], the result was Active. For the same molecule, in series [9], the Activity is 35%. Besides, the outcome with Acinetobacter baumannii [10] was inactive.
